Laboratory results reported in patent US9315498B2, “Arlethynyl derivatives” (Hoffmann-La Roche Inc., priority 2010, dated 2016).

Target: human mGlu5a receptor (Homo sapiens (Human), UniProt P41594)
Test: Intracellular Ca2+ mobilization assay (mGlu5 PAM)
Assay type: cell-based
Settings: for EC50: HEK-293 cells stably transfected with human mGlu5a, L-glutamate added at EC20 after pre-incubation with test compound, read-out: EC50 (nM) mGlu5PAM; for Emax: maximal response in % of the maximal stimulatory effect obtained with saturating concentrations of L-glutamate, read-out: Eff. (%)
Protocol: A monoclonal HEK-293 cell line stably transfected with a cDNA encoding for the human mGlu5a receptor was generated; for the work with mGlu5 Positive Allosteric Modulators (PAMs), a cell line with low receptor expression levels and low constitutive receptor activity was selected to allow the differentiation of agonistic versus PAM activity. Cells were cultured according to standard protocols (Freshney, 2000) in Dulbecco's Modified Eagle Medium with high glucose supplemented with 1 mM glutamine, 10% (vol/vol) heat-inactivated bovine calf serum, Penicillin/Streptomycin, 50 μg/ml hygromycin and 15 μg/ml blasticidin (all cell culture reagents and antibiotics from Invitrogen, Basel, Switzerland).
About 24 hrs before an experiment, 5×10^4 cells/well were seeded in poly-D-lysine coated, black/clear-bottomed 96-well plates. The cells were loaded with 2.5 μM Fluo-4AM in loading buffer (1×HBSS, 20 mM HEPES) for 1 hr at 37° C. and washed five times with loading buffer. The cells were transferred into a Functional Drug Screening System 7000 (Hamamatsu, Paris, France), and 11 half logarithmic serial dilutions of test compound at 37° C. were added and the cells were incubated for 10-30 min. with on-line recording of fluorescence. Following this pre-incubation step, the agonist L-glutamate was added to the cells at a concentration corresponding to EC20 (typically around 80 μM) with on-line recording of fluorescence; in order to account for day-to-day variations in the responsiveness of cells, the EC20 of glutamate was determined immediately ahead of each experiment by recording of a full dose-response curve of glutamate.
Responses were measured as peak increase in fluorescence minus basal (i.e. fluorescence without addition of L-glutamate), normalized to the maximal stimulatory effect obtained with saturating concentrations of L-glutamate. Graphs were plotted with the % maximal stimulatory using XLfit, a curve fitting program that iteratively plots the data using Levenburg Marquardt algorithm. The single site competition analysis equation used was y=A+((B−A)/(1+((x/C)D))), where y is the % maximal stimulatory effect, A is the minimum y, B is the maximum y, C is the EC50, x is the log10 of the concentration of the competing compound and D is the slope of the curve (the Hill Coefficient). From these curves the EC50 (concentration at which half maximal stimulation was achieved), the Hill coefficient as well as the maximal response in % of the maximal stimulatory effect obtained with saturating concentrations of L-glutamate were calculated.
A depression of the signal observed after addition of the EC20 concentration of L-glutamate was indicative of an inhibitory activity of the test compound.

Chain of human mGlu5a receptor (P41594 other isoform, or with tags, fused parts or gaps): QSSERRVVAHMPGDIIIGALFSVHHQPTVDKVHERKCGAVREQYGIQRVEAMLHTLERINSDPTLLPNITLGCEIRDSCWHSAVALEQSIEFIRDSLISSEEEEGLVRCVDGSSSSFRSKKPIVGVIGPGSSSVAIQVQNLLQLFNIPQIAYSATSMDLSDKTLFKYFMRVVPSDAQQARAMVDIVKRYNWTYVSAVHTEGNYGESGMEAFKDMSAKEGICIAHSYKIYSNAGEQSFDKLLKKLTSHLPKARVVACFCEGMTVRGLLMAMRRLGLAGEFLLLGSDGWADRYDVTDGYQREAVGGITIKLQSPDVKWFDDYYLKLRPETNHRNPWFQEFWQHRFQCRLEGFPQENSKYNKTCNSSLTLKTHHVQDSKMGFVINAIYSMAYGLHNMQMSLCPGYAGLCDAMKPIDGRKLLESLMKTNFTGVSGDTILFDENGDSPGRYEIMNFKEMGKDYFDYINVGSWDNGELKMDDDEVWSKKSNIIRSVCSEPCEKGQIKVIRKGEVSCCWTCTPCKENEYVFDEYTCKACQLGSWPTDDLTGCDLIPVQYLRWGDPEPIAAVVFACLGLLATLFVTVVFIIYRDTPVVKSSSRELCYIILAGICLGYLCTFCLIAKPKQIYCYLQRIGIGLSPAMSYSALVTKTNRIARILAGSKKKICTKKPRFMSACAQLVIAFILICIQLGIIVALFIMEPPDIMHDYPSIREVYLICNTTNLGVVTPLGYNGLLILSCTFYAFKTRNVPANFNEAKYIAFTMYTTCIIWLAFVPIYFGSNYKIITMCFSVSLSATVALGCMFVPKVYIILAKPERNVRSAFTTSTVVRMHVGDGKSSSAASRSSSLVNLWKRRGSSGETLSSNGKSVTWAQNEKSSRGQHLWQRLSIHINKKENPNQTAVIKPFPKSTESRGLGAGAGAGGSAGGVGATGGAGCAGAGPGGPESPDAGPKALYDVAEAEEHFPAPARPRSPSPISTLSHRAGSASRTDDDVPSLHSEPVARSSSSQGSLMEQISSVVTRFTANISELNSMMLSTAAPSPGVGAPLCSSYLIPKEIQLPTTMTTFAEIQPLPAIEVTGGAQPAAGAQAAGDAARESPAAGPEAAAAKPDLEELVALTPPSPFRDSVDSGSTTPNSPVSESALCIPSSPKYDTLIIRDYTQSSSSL

SMILES	EC50 [nM]	Emax [%]
COC1CN(c2ccc(C#Cc3cccc(F)c3)cn2)C(=O)OC1(C)C (racemic) [Example 169, (RS)-3-[5-(3-Fluoro-phenylethynyl)-pyridin-2-yl]-5-methoxy-6,6-dimethyl-[1,3]oxazinan-2-one]	13	52
O=C1OC2(CC2)CN1c1ccc(C#Cc2cccnc2)cn1 [Example 36, 6-(5-Pyridin-3-ylethynyl-pyridin-2-yl)-4-oxa-6-aza-spiro[2.4]heptan-5-one]	58	80
CN1C(=O)N(c2ncc(C#Cc3ccccc3)cn2)CC12CC2 [Example 147, 4-Methyl-6-(5-phenylethynyl-pyrimidin-2-yl)-4,6-diaza-spiro[2.4]heptan-5-one]	25	36
O=C1N(c2ccc(C#Cc3ccccc3)cn2)CC2CCCCN12 (racemic) [Example 58, (RS)-2-(5-Phenylethynyl-pyridin-2-yl)-hexahydro-imidazo[1,5-a]pyridin-3-one]	33	43
CC1(C)CCN(c2ccc(C#Cc3cncc(F)c3)cn2)C(=O)O1 [Example 74, 3-[5-(5-Fluoro-pyridin-3-ylethynyl)-pyridin-2-yl]-6,6-dimethyl-[1,3]oxazinan-2-one]	59	108
CC(C)(C)C1(C)CN(c2ccc(C#Cc3ccccc3)cn2)C(=O)O1 (racemic) [Example 19, (5RS)-5-tert-Butyl-5-methyl-3-(5-phenylethynyl-pyridin-2-yl)-oxazolidin-2-one]	27	85
CC1(C)CC(=O)N(c2ccc(C#Cc3cncc(Cl)c3)cn2)C1 [Example 39, 1-[5-(5-Chloro-pyridin-3-ylethynyl)-pyridin-2-yl]-4,4-dimethyl-pyrrolidin-2-one]	48	98
CC1(C)CCN(c2ccc(C#Cc3ccc(F)c(F)c3)cn2)C(=O)O1 [Example 80, 3-[5-(3,4-Difluoro-phenylethynyl)-pyridin-2-yl]-6,6-dimethyl-[1,3]oxazinan-2-one]	37	69
COC1C(=O)N(c2ccc(C#Cc3cccc(F)c3)cn2)CC1(C)C (racemic) [Example 65, (RS)-1-[5-(3-Fluoro-phenylethynyl)-pyridin-2-yl]-3-methoxy-4,4-dimethyl-pyrrolidin-2-one]	43	91
CC1(C)OC(=O)N(c2ccc(C#Cc3ccccc3)cn2)CC1O (racemic) [Example 95, (RS)-5-Hydroxy-6,6-dimethyl-3-(5-phenylethynyl-pyridin-2-yl)-[1,3]oxazinan-2-one]	47	118
COC[C@@H]1CN(c2ccc(C#Cc3ccccc3)cn2)C(=O)O1 (single isomer, unassigned) [Example 4, (5S or 5R)-5-Methoxymethyl-3-(5-phenylethynyl-pyridin-2-yl)-oxazolidin-2-one]	278	98
CC1(C)CCN(c2ccc(C#Cc3cc(F)ccc3F)cn2)C(=O)C1 [Example 92, 5′-(2,5-Difluoro-phenylethynyl)-4,4-dimethyl-3,4,5,6-tetrahydro-[1,2′]bipyridinyl-2-one]	32	84
CC1(C)CN(c2ccc(C#Cc3ccccc3)cn2)C(=O)N1 [Example 15, 4,4-Dimethyl-1-(5-phenylethynyl-pyridin-2-yl)-imidazolidin-2-one]	130	101
CN1C(=O)N(c2ccc(C#Cc3ccnnc3)cn2)CC1(C)C [Example 52, 3,4,4-Trimethyl-1-(5-pyridazin-4-ylethynyl-pyridin-2-yl)-imidazolidin-2-one]	34	32
CN1C(=O)N(c2ccc(C#Cc3ccccc3)cn2)C2CCCCC21 (stereo not drawn) [Example 84, (3 aSR,7aRS)-(3aRS,7RS)-1-Methyl-3-(5-phenylethynyl-pyridin-2-yl)-octahydro-benzoimidazol-2-one]	11	64
Cc1cc(C#Cc2ccccc2)cnc1N1CC(C)(C)CC1=O [Example 41, 4,4-Dimethyl-1-(3-methyl-5-phenylethynyl-pyridin-2-yl)-pyrrolidin-2-one]	58	89
CC1CN(c2ccc(C#Cc3ccccc3)cn2)C(=O)OC1(C)C (racemic) [Example 104, (RS)-5,6,6-Trimethyl-3-(5-phenylethynyl-pyridin-2-yl)-[1,3]oxazinan-2-one]	42	109

SMILES	EC50 [nM]	Emax [%]
CN1C(=O)N(c2ncc(C#Cc3ccc(F)cc3)cn2)CC1(C)C [Example 125, 1-[5-(4-Fluoro-phenylethynyl)-pyrimidin-2-yl]-3,4,4-trimethyl-imidazolidin-2-one]	13	44
CN1C(=O)N(c2ccc(C#Cc3cncc(F)c3)cn2)C2CCCCC21 (stereo not drawn) [Example 86, (3aSR,7aRS)-(3aRS,7RS)-1-[5-(5-Fluoro-pyridin-3-ylethynyl)-pyridin-2-yl]-3-methyl-octahydro-benzoimidazol-2-one]	32	52
CC1(C)CC(=O)N(c2cnc(C#Cc3cccc(F)c3)cn2)C1 [Example 160]	29	39
O=C1CC2(CCCC2)CN1c1ccc(C#Cc2ccccc2)cn1 [Example 59, 2-(5-Phenylethynyl-pyridin-2-yl)-2-aza-spiro[4.4]nonan-3-one]	16	81
CC1(C)CC(=O)N(c2ccc(C#Cc3cncc(F)c3)cn2)C1 [Example 37, 1-[5-(5-Fluoro-pyridin-3-ylethynyl)-pyridin-2-yl]-4,4-dimethyl-pyrrolidin-2-one]	22	96
CN1C(=O)N(c2ncc(C#Cc3cccc(F)c3)cn2)CCC1(C)C [Example 138, 5′-(3-Fluoro-phenylethynyl)-3,4,4-trimethyl-3,4,5,6-tetrahydro-[1,2′]bipyrimidinyl-2-one]	60	67
CC1(C)CC(=O)N(c2ccc(C#Cc3cccc(F)c3)cn2)C1 [Example 40, 1-[5-(3-Fluoro-phenylethynyl)-pyridin-2-yl]-4,4-dimethyl-pyrrolidin-2-one]	15	100
CO[C@@H]1C(=O)N(c2ncc(C#Cc3ccccc3)cn2)CC1(C)C (single isomer, unassigned) [Example 128]	46	54
CC1(C)CC(=O)N(c2ncc(C#Cc3cc(F)ccc3F)cn2)C1 [Example 121, 1-[5-(2,5-Difluoro-phenylethynyl)-pyrimidin-2-yl]-4,4-dimethyl-pyrrolidin-2-one]	41	70
CN1C(=O)N(c2ccc(C#Cc3cc(F)ccc3F)cn2)CCC1(C)C [Example 68, 1-[5-(2,5-Difluoro-phenylethynyl)-pyridin-2-yl]-3,4,4-trimethyl-tetrahydro-pyrimidin-2-one]	41	79
CN1C(=O)N(c2ccc(C#Cc3cccc(F)c3)cn2)[C@@H]2CCC[C@@H]21 (racemic) [Example 109, (3aSR,6aRS)-1-[5-(3-Fluoro-phenylethynyl)-pyridin-2-yl]-3-methyl-hexahydro-cyclopenta-imidazol-2-one]	18	37
CC1(C)CC(=O)N(c2ccc(C#Cc3ccccc3)nn2)C1 [Example 150, 4,4-Dimethyl-1-(6-(phenylethynyl)pyridazin-3-yl)pyrrolidin-2-one]	21	113
CN1C(=O)N(c2cnc(C#Cc3cccc(F)c3)cn2)CCC1(C)C [Example 167, 1-(5-((3-Fluorophenyl)ethynyl)pyrazin-2-yl)-3,4,4-trimethyltetrahydropyrimidin-2(1H)-one]	26	54
CC1(C)CCC(=O)N(c2ncc(C#Cc3ccccc3)cn2)C1 [Example 116, 5,5-Dimethyl-1-(5-phenylethynyl-pyrimidin-2-yl)-piperidin-2-one]	41	101
CC1(C)CN(c2ccc(C#Cc3cncc(F)c3)cn2)C(=O)O1 [Example 29, 3-[5-(5-Fluoro-pyridin-3-ylethynyl)-pyridin-2-yl]-5,5-dimethyl-oxazolidin-2-one]	15	45
CC1(C)CCC(=O)N(c2ccc(C#Cc3ccccc3)cn2)C1 [Example 42, 5,5-Dimethyl-5′-phenylethynyl-3,4,5,6-tetrahydro-[1,2′]bipyridinyl-2-one]	16	139
